# Laboratory results: US12350259B2, “Methods of treating migraine” (Allergan Pharmaceuticals International Limited, priority 2021, dated 2025)
# Where two headings read alike, the source gives them in different places. Marks after values point to notes of the source that are not given here.
# Tests used:
# [1] = Atogepant-itraconazole drug interaction study: atogepant plasma PK; format: in vivo, human; conditions: for Tmax / AUC(0-inf) / AUC(0-t) / Cmax / half-life / Vd/F: both sexes, human, plasma, oral; for Vd/F: read-out: Vz/F
# Procedure: An open-label, single-sequence drug-drug interaction study was carried out to evaluate the effect of CYP3A4 inhibition by oral itraconazole (200 mg per day) on the pharmacokinetics of a single oral dose of atogepant (60 mg) in healthy subjects.
# This study was a single-center, single-sequence, open-label, 2-period PK drug-interaction study in 40 healthy male and female subjects aged 18 through 45 years.
# Subjects who satisfied the inclusion and exclusion criteria were assigned to a single fixed-treatment sequence in which they received Treatment A followed by Treatment B; there was a 7-day washout period between treatments. • Treatment A: Single oral 60 mg dose of atogepant (tablet) under fasted conditions on Day 1 • Treatment B • Days 8-14: Itraconazole 200 mg (tablet) orally once daily under fed conditions. • Day 15: Itraconazole 200 mg coadministered with atogepant 60 mg (tablet) under fasted conditions. • Days 16 to 17: Itraconazole 200 mg (tablet) once daily under fed conditions.
# Atogepant was administered in the fasted state in this study. Administration of itraconazole with food enhances its bioavailability. Accordingly, to maximize the CYP3A4 inhibition effect, itraconazole was administered with food on all the itraconazole treatment days except day 15. On day 15, both itraconazole and atogepant were administered under fasted state. Fasted state administration of itraconazole on Day 15 was unlikely to affect the CYP3A4 inhibition effect due to the attainment of steady state (of CYP3A4 activity) and long T1/2 of itraconazole (34 to 42 hours) following repeat dose administration.
# CYP2B6 = CYP2B6 (Homo sapiens, UniProt P20813); assay: In vitro CYP inhibition; format: in vitro ADME; conditions: clinically relevant concentrations
# Chain of CYP2B6 (P20813 whole entry): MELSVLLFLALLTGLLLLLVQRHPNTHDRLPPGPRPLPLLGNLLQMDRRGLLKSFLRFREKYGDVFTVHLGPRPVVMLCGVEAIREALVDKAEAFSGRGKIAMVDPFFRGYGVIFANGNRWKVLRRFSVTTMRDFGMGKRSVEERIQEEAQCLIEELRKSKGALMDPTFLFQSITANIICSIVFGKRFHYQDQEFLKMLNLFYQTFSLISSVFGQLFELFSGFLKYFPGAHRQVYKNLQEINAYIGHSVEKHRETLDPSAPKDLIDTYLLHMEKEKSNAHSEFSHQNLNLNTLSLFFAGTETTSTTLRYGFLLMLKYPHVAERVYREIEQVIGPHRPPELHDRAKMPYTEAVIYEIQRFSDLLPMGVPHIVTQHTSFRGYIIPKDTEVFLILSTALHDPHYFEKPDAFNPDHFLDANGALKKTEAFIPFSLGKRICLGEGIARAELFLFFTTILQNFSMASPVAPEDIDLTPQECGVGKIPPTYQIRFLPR
# [2] = tested on: patients with episodic migraine; assay: Study 1 (NCT03777059): preventive treatment of episodic migraine, efficacy; format: in vivo, human
# Procedure: The studies enrolled patients with at least a 1-year history of migraine with or without aura, according to the International Classification of Headache Disorders (ICHD-3) diagnostic criteria. In Study 1 (NCT03777059), 910 patients were randomized 1:1:1:1 to receive atogepant 10 mg (N=222), atogepant 30 mg (N=230), atogepant 60 mg (N=235), or placebo (N=223), once daily for 12 weeks. In Study 2 (NCT02848326), 652 patients were randomized 1:2:2:2 to receive atogepant 10 mg (N=94), atogepant 30 mg (N=185), atogepant 60 mg (N=187), or placebo (N=186), once daily for 12 weeks. In both studies, patients were allowed to use acute headache treatments (i.e., triptans, ergotamine derivatives, NSAIDs, acetaminophen, and opioids) as needed. The use of a concomitant medication that acts on the CGRP pathway was not permitted for either acute or preventive treatment of migraine. The studies excluded patients with myocardial infarction, stroke, or transient ischemic attacks within six months prior to screening. The primary efficacy endpoint was the change from baseline in mean monthly migraine days (MMD) across the 12-week treatment period. Secondary endpoints included the change from baseline in mean monthly headache days, the change from baseline in mean monthly acute medication use days, the proportion of patients achieving at least a 50% reduction from baseline in mean MMD (3-month average), the change from baseline in mean monthly Activity Impairment in Migraine-Diary (AIM-D) Performance of Daily Activities (PDA) domain scores, the change from baseline in mean monthly AIM-D Physical Impairment (PI) domain scores, across the 12 week treatment period, and the change from baseline at Week 12 for Migraine Specific Quality of Life Questionnaire version 2.1 (MSQ v2.1) Role Function-Restrictive (RFR) domain scores. The AIM-D evaluates difficulty with performance of daily activities (PDA domain) and physical impairment (PI domain) due to migraine, with scores ranging from 0 to 100. Higher scores indicate greater impact of migraine, and reductions from baseline indicate improvement. The MSQ v2.1 Role Function-Restrictive (RFR) domain score assesses how often migraine impacts function related to daily social and work-related activities over the past 4 weeks, with scores ranging from 0 to 100. Higher scores indicate lesser impact of migraine on daily activities, and increases from baseline indicate improvement.
# OATP1B3 = OATP1B3 (Homo sapiens, UniProt Q9NPD5); assay: Transporter inhibition; format: in vitro ADME
# Chain of OATP1B3 (Q9NPD5 whole entry): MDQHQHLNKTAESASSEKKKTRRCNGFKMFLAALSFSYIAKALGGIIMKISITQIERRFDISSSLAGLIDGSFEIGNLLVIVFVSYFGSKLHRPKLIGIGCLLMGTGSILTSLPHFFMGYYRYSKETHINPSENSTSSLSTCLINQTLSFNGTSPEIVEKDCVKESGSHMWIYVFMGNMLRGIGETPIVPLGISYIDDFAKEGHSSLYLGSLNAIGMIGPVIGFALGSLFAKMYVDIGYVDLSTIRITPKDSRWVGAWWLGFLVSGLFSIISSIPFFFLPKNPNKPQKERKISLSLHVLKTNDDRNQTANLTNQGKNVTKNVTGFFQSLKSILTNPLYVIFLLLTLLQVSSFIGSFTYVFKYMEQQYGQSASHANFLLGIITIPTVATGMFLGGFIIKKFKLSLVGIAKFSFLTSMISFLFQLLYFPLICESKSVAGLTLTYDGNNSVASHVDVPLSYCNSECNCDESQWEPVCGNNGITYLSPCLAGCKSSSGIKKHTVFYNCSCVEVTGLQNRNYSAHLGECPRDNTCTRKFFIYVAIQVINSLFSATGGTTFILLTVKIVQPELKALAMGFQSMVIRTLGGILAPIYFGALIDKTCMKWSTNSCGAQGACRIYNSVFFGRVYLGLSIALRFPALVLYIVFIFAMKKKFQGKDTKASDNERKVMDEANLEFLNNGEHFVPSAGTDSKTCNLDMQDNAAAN
# [3] = Atogepant-topiramate interaction study: safety and tolerability; format: in vivo, human
# MRP3 = MRP3 (Homo sapiens, UniProt O15438); assay: Transporter inhibition; format: in vitro ADME; conditions: clinically relevant concentrations
# Chain of MRP3 (O15438 whole entry): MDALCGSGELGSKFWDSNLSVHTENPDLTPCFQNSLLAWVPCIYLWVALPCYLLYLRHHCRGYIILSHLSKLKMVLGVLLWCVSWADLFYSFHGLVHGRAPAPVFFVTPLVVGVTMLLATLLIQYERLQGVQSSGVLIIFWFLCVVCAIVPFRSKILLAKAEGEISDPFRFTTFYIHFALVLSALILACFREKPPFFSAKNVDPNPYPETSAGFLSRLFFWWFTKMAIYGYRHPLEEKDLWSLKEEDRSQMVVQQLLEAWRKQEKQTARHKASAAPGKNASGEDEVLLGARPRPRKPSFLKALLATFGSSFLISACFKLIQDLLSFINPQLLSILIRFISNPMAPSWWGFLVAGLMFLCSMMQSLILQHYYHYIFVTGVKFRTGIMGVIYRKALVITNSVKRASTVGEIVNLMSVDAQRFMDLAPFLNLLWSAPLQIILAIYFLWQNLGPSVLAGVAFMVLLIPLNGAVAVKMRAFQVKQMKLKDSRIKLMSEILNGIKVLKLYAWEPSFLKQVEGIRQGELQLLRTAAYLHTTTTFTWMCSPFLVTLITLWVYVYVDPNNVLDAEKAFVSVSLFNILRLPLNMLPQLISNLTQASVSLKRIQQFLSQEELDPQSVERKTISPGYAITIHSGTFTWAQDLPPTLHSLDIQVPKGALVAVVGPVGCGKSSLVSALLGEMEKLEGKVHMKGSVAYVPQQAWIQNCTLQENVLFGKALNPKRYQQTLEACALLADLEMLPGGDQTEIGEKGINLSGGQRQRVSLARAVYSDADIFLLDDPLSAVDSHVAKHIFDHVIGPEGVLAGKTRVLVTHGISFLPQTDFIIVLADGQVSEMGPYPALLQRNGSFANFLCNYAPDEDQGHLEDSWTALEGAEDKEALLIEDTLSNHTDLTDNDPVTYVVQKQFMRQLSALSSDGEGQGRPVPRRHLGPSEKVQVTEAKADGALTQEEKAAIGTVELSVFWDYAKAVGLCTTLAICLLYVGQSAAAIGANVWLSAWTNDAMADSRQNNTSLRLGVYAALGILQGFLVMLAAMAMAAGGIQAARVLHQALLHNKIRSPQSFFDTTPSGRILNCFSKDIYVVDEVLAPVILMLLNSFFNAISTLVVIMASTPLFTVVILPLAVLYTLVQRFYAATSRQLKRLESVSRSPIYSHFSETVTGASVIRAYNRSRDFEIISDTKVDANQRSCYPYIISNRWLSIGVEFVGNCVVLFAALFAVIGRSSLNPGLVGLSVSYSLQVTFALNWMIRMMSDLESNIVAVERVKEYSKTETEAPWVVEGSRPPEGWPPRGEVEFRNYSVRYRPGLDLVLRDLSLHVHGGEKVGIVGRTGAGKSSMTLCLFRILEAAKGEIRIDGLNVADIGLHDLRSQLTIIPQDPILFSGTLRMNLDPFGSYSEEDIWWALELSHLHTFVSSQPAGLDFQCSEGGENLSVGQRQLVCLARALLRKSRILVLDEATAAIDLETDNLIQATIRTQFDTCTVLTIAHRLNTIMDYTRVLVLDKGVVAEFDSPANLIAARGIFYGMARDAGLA
# [4] = Treatment A: atogepant 60 mg single dose alone, fasted
# [5] = Treatment B: atogepant 60 mg + steady state itraconazole 200 mg
# [6] = atogepant + itraconazole vs atogepant alone
# [7] = co-administration with itraconazole (strong CYP3A4 inhibitor), healthy subjects
# [8] = Study 1, atogepant 10 mg once daily
# [9] = Study 1, atogepant 30 mg once daily
# [10] = Study 1, atogepant 60 mg once daily
smiles,measurement,setting,value
"C[C@@H]1[C@H](c2c(F)ccc(F)c2F)C[C@H](NC(=O)c2cnc3c(c2)C[C@@]2(C3)C(=O)Nc3ncccc32)C(=O)N1CC(F)(F)F [atogepant, (3′S)-N-[(3S,5S,6R)-6-methyl-2-oxo-1-(2,2,2-trifluoroethyl)-5-(2,3,6-trifluorophenyl)piperidin-3-yl]-2′-oxo-1′,2′,5,7-tetrahydrospiro[cyclopenta[b]pyridine-6,3′-pyrrolo[2,3-b]pyridine]-3-carboxamide]",CL/F,[1]; [4],19.2 L/h
same,λz,[1]; [4],0.0825 h⁻¹
same,CL/F,[1]; [5],3.46 L/h
same,λz,[1]; [5],0.0496 h⁻¹
same,AUC0-t GM Ratio Treatment B/Treatment A,[1]; [6],543.26%
same,AUC0-∞ GM Ratio Treatment B/Treatment A,[1]; [6],550.78%
same,Cmax GM Ratio Treatment B/Treatment A,[1]; [6],215.11%
same,Tmax,"[1]; 60 mg, Treatment A: atogepant 60 mg single dose alone, fasted, read-out: Tmax (median)",2 h
same,Tmax,"[1]; atogepant + itraconazole vs atogepant alone, read-out: Tmax difference of medians",1 h
same,AUC(0-inf),[1]; [4],3470 ng·h/mL
same,AUC(0-t),[1]; [4],3440 ng·h/mL
same,Cmax,[1]; [4],740 ng/mL
same,half-life,[1]; [4],11.2 h
same,Vd/F,[1]; [4],292 L
same,AUC(0-inf),[1]; [5],18900 ng·h/mL
same,AUC(0-t),[1]; [5],18500 ng·h/mL
same,Cmax,[1]; [5],1580 ng/mL
same,half-life,[1]; [5],14.9 h
same,Tmax,"[1]; Treatment B: atogepant 60 mg + steady state itraconazole 200 mg, read-out: Tmax (median)",3 h
same,Vd/F,[1]; [5],73.4 L
same,increase in atogepant AUC,[1]; [7],5.5 fold
same,increase in atogepant Cmax,[1]; [7],2.15 fold
same,inhibition of CYP2B6,CYP2B6,not an inhibitor
same,"AIM-D PDA Domain across 12 weeks, difference from placebo",[2]; [8],−1.2
same,"AIM-D PDA Domain across 12 weeks, mean change from baseline",[2]; [8],−7.3
same,"AIM-D PI Domain across 12 weeks, difference from placebo",[2]; [8],−1.1
same,"AIM-D PI Domain across 12 weeks, mean change from baseline",[2]; [8],−5.1
same,"MSQ v2.1 RFR Domain at week 12, difference from placebo",[2]; [8],9.9
same,"MSQ v2.1 RFR Domain at week 12, mean change from baseline",[2]; [8],30.4
same,"Monthly Acute Medication Use Days across 12 weeks, difference from placebo",[2]; [8],−1.3
same,"Monthly Acute Medication Use Days across 12 weeks, mean change from baseline",[2]; [8],−3.7
same,"Monthly Headache Days across 12 weeks, difference from placebo",[2]; [8],−1.4
same,"Monthly Headache Days across 12 weeks, mean change from baseline",[2]; [8],−3.9
same,"Monthly Migraine Days (MMD) across 12 weeks, difference from placebo",[2]; [8],−1.2
same,"Monthly Migraine Days (MMD) across 12 weeks, mean change from baseline",[2]; [8],−3.7
same,"≥50% MMD Responders across 12 weeks, % Responders",[2]; [8],56%
same,"≥50% MMD Responders across 12 weeks, difference from placebo",[2]; [8],27%
same,"AIM-D PDA Domain across 12 weeks, difference from placebo",[2]; [9],−2.5
same,"AIM-D PDA Domain across 12 weeks, mean change from baseline",[2]; [9],−8.6
same,"AIM-D PI Domain across 12 weeks, difference from placebo",[2]; [9],−2.0
same,"AIM-D PI Domain across 12 weeks, mean change from baseline",[2]; [9],−6.0
same,"MSQ v2.1 RFR Domain at week 12, difference from placebo",[2]; [9],10.1
same,"MSQ v2.1 RFR Domain at week 12, mean change from baseline",[2]; [9],30.5
same,"Monthly Acute Medication Use Days across 12 weeks, difference from placebo",[2]; [9],−1.3
same,"Monthly Acute Medication Use Days across 12 weeks, mean change from baseline",[2]; [9],−3.7
same,"Monthly Headache Days across 12 weeks, difference from placebo",[2]; [9],−1.5
same,"Monthly Headache Days across 12 weeks, mean change from baseline",[2]; [9],−4.0
same,"Monthly Migraine Days (MMD) across 12 weeks, difference from placebo",[2]; [9],−1.4
same,"Monthly Migraine Days (MMD) across 12 weeks, mean change from baseline",[2]; [9],−3.9
same,"≥50% MMD Responders across 12 weeks, % Responders",[2]; [9],59%
same,"≥50% MMD Responders across 12 weeks, difference from placebo",[2]; [9],30%
same,"AIM-D PDA Domain across 12 weeks, difference from placebo",[2]; [10],−3.3
same,"AIM-D PDA Domain across 12 weeks, mean change from baseline",[2]; [10],−9.4
same,"AIM-D PI Domain across 12 weeks, difference from placebo",[2]; [10],−2.5
same,"AIM-D PI Domain across 12 weeks, mean change from baseline",[2]; [10],−6.5
same,"MSQ v2.1 RFR Domain at week 12, difference from placebo",[2]; [10],10.8
same,"MSQ v2.1 RFR Domain at week 12, mean change from baseline",[2]; [10],31.3
same,"Monthly Acute Medication Use Days across 12 weeks, difference from placebo",[2]; [10],−1.5
same,"Monthly Acute Medication Use Days across 12 weeks, mean change from baseline",[2]; [10],−3.9
same,"Monthly Headache Days across 12 weeks, difference from placebo",[2]; [10],−1.7
same,"Monthly Headache Days across 12 weeks, mean change from baseline",[2]; [10],−4.2
same,"Monthly Migraine Days (MMD) across 12 weeks, difference from placebo",[2]; [10],−1.7
same,"Monthly Migraine Days (MMD) across 12 weeks, mean change from baseline",[2]; [10],−4.2
same,"≥50% MMD Responders across 12 weeks, % Responders",[2]; [10],61%
same,"≥50% MMD Responders across 12 weeks, difference from placebo",[2]; [10],32%
same,inhibition of OATP1B3,OATP1B3,weak inhibitor
same,"Deaths, %","[3]; cohort 1, atogepant + topiramate (n = 26)",(0) %
same,"Deaths, %","[3]; cohort 1, atogepant alone (n = 28)",(0) %
same,"TEAEs leading to discontinuation, %","[3]; human, in vivo",(17.9)^a %
same,"TESAEs, %","[3]; human, in vivo",(0) %
same,"Treatment-related TEAEs, %","[3]; human, in vivo",(39.3) %
same,"Treatment-related TESAEs, %","[3]; human, in vivo",(0) %
same,constipation reported,"[3]; human, in vivo",3 participants
same,nausea reported,"[3]; human, in vivo",6 participants
same,"TEAEs, %","[3]; human, in vivo, 7 days",(71.4) %
same,inhibition of MRP3,MRP3,not an inhibitor
